The values that follow are results of earlier work, collected in article PMC10011554, “BET inhibitor trotabresib in heavily pretreated patients with solid tumors and diffuse large B-cell lymphomas” (Nature Communications, 2023).

Where two headings read alike, the source gives them in different places.

One data set concerns OCI-LY-10 (DOX-R). On the set-up: method as in Report CC-90010-Pharm-1018. The note with it: Table 2, ref Report CC-90010-Pharm-1018, read-out: absolute IC50, proliferation; cited from earlier work.
Details of data set [1]: method as in Investigator's Brochure. Particulars: 2 hours postdose, ref Investigator's Brochure, cited from earlier work.
In another data set the test system is OATP1B3. On the set-up: method as in Investigator's Brochure. The note with it: OATP1B3, 30 µM, ref Investigator's Brochure; cited from earlier work.
Data set [2] concerns bacterial reverse mutation. On the set-up: method as in Investigator's Brochure. Particulars: non-GLP, ref Investigator's Brochure; cited from earlier work.

Consider `Cn1cc(-c2cc(S(C)(=O)=O)ccc2OCC2CC2)c2ccccc2c1=O` [trotabresib], for which the IC50 in the data set on OCI-LY-10 (DOX-R) is 1100 nM. For the same compound, the maximally-measured tumor level in data set [1] (COH70, 2 mg/kg) was 1.3 ± 0.3 µM; in data set [1] (COH70, 10 mg/kg), 6.7 ± 1.7 µM. Also, the “inhibition of mediated transport” value in the data set with OATP1B3 is reported as 58.3%. Also, the “mutagenicity (Ames)” value in data set [2] is given as “non-mutagenic”.
